In patent US20200397965A1, “METHOD AND SYSTEM FOR […] MONOXIDE (CO) ADMINISTRATION TO EX-VIVO FLUIDS” (Julius-Maximilians-Universitaet Wuerzburg, priority 2018, published 2020):

Experiment: ICP-MS analysis for molybdenum in harvested organs and blood after ECCORS CO delivery in veno-arterial ECMO
Assay type: in vivo, landrace-hybrid pigs
Settings: swine on ECMO with ECCORS, Beck1 injected into FeCl3 secondary circuit behind silicone membrane
Experimental: After obtaining consent by Regierungspraesidium Freiburg, seven landrace-hybrid pigs (weight 52±2 kg) were anesthetized (continuous infusion of propofol, fentanyl and cisatracurium), mechanically ventilated and monitored with electrocardiogram, pulse-oximetry and invasive blood pressure measurement by cannulating the carotid and pulmonary artery. Instrumentation with veno-arterial ECMO (extracorporeal membrane oxygenation) was carried out in a sterile technique: Venous access was achieved by ultrasound-guided cannulation of femoral vein (21 French HLS cannula, Maquet, Rastatt, Germany), while arterial inflow into the femoral artery was established using 17 French HLS cannula from Maquet, (Rastatt, Germany). The ECMO circuit (primary circuit) was then set-up using a customary centrifugal pump head (Revolution 5, Sorin, Rome, Italy), an oxygenator (EOS ECMO, Sorin, Rome, Italy), and 3/8” tubing for interconnection. The system was regulated using a modified console (core element: SCP-Console, Sorin, Rome, Italy).
The ECCORS was then integrated in line with the oxygenator into the primary ECMO circuit. A commercially available PDMSXA-1.0 silicone membrane module from PermSelect (AnnArbor, II) served as core functional element of the ECCORS. […]
Tissue was analyzed for CO effects and residual CORM constituents in the harvest organs and blood using ICP-MS analysis for molybdenum. […]

Mo(CO)3(CNCH2COOH)3 [CORM]
toxic components of CORM / transition metals found in tissue or blood: no transition metals can be found in the tissue or blood
